Assay results from patent US9669003B2, “Use of flavone and flavanone derivatives in preparation of sedative and hypnotic drugs” (priority 2012, dated 2017).
Marks after values point to notes of the source that are not given here.

Tests used:
Type in all cases: in vivo
Kunming mice [1] = assay: Influence on hypnosis effect with pentobarbital sodium doses below the threshold (25 mg/kg i.p.); conditions: pentobarbital sodium 25 mg/kg i.p. 60 min later, sleep observed in 30 min, n = 10
Source text: (§1) 1.1 Animals for experiments: Kunming mice, weighting 18.9˜22.2 g for females, and 20.2˜23.0 g for males, licensed under SCXK-(Ji) 2007-0003, and provided by The experimental animal centre, Jilin University.
(§2) 1.2 Chemicals for experiments: The flavone derivatives provided in Examples 1-41 and the flavanone derivatives provided in Examples 42-71 are all formulated with 0.5% sodium carboxymethyl cellulose as solutions with required concentrations.
(§3) 1.3 Grouping of animals: 6420 animals are employed in the entire experiments and 2140 of the animals are randomly divided into 214 groups by gender, and the […] include: control group, low dosage group for each experimental drugs (25 mg/kg), medium dosage group for each experimental drugs (50 mg/kg), and high dosage group for each experimental drugs (100 mg/kg). Each group has 10 animals and either female or male constitutes half of the group. The groups are used in behavior observation and voluntary action observation. The other 4280 animals are randomly divided into 214 groups by gender respectively (the grouping way is the same with that described above). Each group has 20 animals and either female or male constitutes half of the group. In each group, 10 animals are used in hypnosis experimentations with pentobarbital sodium doses below the threshold, and the other 10 animals are used hypnosis experimentations with pentobarbital sodium doses at the threshold.
1.5.3 Influence on Hypnosis Effect with Mice Pentobarbital Sodium Doses Below the Threshold
(§4) The drug is intragastric administered in mice for single time, 2 animals of each group are given drug per round with the dosing interval of 40 min (±5 min). According to the administration round, in 60 min (±5 min) of each round after the drug administration, the animals were intraperitoneally injected 0.3% sodium pentobarbital 25 mg/kg, respectively. Sleep condition of the animals were observed within 30 min (under sleep determination standard of loss of righting reflex more than 1 min). After animals undergo loss of righting reflex, number of the animals is recorded, to calculate sleep percentage.
(§5) Number of autonomic activities is detected by leneve Test for homogeneity of variance. If the homogeneity of variance is good (P>0.05), statistical analysis is performed with ANOVA. If ANOVA have statistical significance (P≦0.05), Dunnett's test for multiple comparisons analysis is performed. Number of animals of sleeping mice is applied of ANOVA. Incidence rate of animal asleep is applied of χ2 test. Sleep latency and sleep duration are recorded in min, averaged by group, represented by standard deviation, and undergo statistical analysis using ANOVA.

Kunming mice [2] = assay: Influence on autonomic activity of normal mice (ZIL-2 mice autonomic activity meter, counts within 10 min); conditions: intragastric, x ± s, n = 10; for Times of activities in 1 h after drug administration/10 min: 1 h after administration; for Times of activities in 2 h after drug administration/10 min: 2 h after administration; for Times of activities in 24 h after drug administration/10 min: 24 h after administration
Source text: as §1, §2, §3
1.4 Experimental instrument and agents: ZIL-2 mice autonomic activity meter, production of Institute of Materia Medica of Chinese Academy of Medical Sciences; pentobarbital sodium, Lot: 100808, 25 g/bottle, Beijing Chemical Reagent Company equipment imported from Germany.
1.5.2 Influence on Autonomic Activity of Normal Mice
After observing the general behavior, in 1 h, 2 h and 24 h after drug administration, respectively, ZIL-2 mice autonomic activity meter is put respectively. Number of autonomic activities of each group of mice is measured within 10 min. Results among groups are compared.
as §5

Kunming mice [3] = assay: Influence on hypnosis effect with pentobarbital sodium doses at the threshold (50 mg/kg i.p.); conditions: pentobarbital sodium 50 mg/kg i.p. 60 min later, x ± s, n = 10
Source text: as §1, §2, §3
1.5.4 Influence on Hypnosis Effect with Mice Pentobarbital Sodium Doses at the Threshold
as §4, with “50” for “25”, “Time to fall asleep (sleep latency) and sleep duration” for “Sleep condition”, “recorded” for “observed”, “under” for “30 min (under”, “min.” for “min). After animals undergo loss of righting reflex, number of the animals is recorded, to calculate sleep percentage.”
as §5

[4] = test drug 25 mg/kg intragastric single dose
[5] = test drug 50 mg/kg intragastric single dose
[6] = test drug 100 mg/kg intragastric single dose
[7] = 25 mg/kg intragastric single dose
[8] = 50 mg/kg intragastric single dose
[9] = 100 mg/kg intragastric single dose

| Structure (SMILES) | Number of sleeping animals (Kunming mice [1]; [4]) | rate of sleeping (%) (Kunming mice [1]; [4]) | Number of sleeping animals (Kunming mice [1]; [5]) | rate of sleeping (%) (Kunming mice [1]; [5]) | Number of sleeping animals (Kunming mice [1]; [6]) | rate of sleeping (%) (Kunming mice [1]; [6]) | Times of activities in 1 h after drug administration/10 min (Kunming mice [2]; 25 mg/kg) | Times of activities in 2 h after drug administration/10 min (Kunming mice [2]; 25 mg/kg) | Times of activities in 24 h after drug administration/10 min (Kunming mice [2]; 25 mg/kg) | Times of activities in 1 h after drug administration/10 min (Kunming mice [2]; 50 mg/kg) | Times of activities in 2 h after drug administration/10 min (Kunming mice [2]; 50 mg/kg) | Times of activities in 24 h after drug administration/10 min (Kunming mice [2]; 50 mg/kg) | Times of activities in 1 h after drug administration/10 min (Kunming mice [2]; 100 mg/kg) | Times of activities in 2 h after drug administration/10 min (Kunming mice [2]; 100 mg/kg) | Times of activities in 24 h after drug administration/10 min (Kunming mice [2]; 100 mg/kg) | duration of sleep (Kunming mice [3]; [7]) [min] | time to sleep (Kunming mice [3]; [7]) [min] | duration of sleep (Kunming mice [3]; [8]) [min] | time to sleep (Kunming mice [3]; [8]) [min] | duration of sleep (Kunming mice [3]; [9]) [min] | also measured |
| --- | --- | --- | --- | --- | --- | --- | --- | --- | --- | --- | --- | --- | --- | --- | --- | --- | --- | --- | --- | --- | --- |
| CC=Cc1cc(I)cc2c1OC(c1cccc(C(=O)O)c1)CC2=O (stereo not drawn) [Example 60] | 5 | 50** % | 6 | 60** % | 9 | 90*** % | 243.8 ± 73.8 /10 min | 238.9 ± 78.3 /10 min | 340.4 ± 76.8 /10 min | 143.3 ± 64.7 /10 min | 131.8 ± 62.3 /10 min | 327.6 ± 75.3 /10 min | 116.9 ± 33.8 /10 min | 109.9 ± 39.2 /10 min | 293.4 ± 84.9 /10 min | 46.64 ± 22.53 | 4.13 ± 1.59 | 58.37 ± 18.85 | 3.62 ± 1.74 | 73.03 ± 19.21 | time to sleep (Kunming mice [3]; [9]): 2.32 ± 1.17 min |
| COc1cc(C2Oc3c(OC)c(OC)c(OC)c(O)c3C(=O)C2OC)c(OC)c(OC)c1OC (stereo not drawn) [Example 68, 5-hydroxyl-3,6,7,8,3′,4′,5′,6′-octa methoxyl-flavanone] | 3 | 30% | 4 | 40* % | 6 | 60** % | 287.3 ± 47.9 /10 min | 267.7 ± 40.4 /10 min | 322.9 ± 76.0 /10 min | 248.2 ± 57.4 /10 min | 243.2 ± 54.6 /10 min | 319.6 ± 75.9 /10 min | 128.2 ± 30.9 /10 min | 241.7 ± 40.9 /10 min | 298.1 ± 80.2 /10 min | 20.69 ± 25.22 | 5.36 ± 2.23 | 29.78 ± 28.77 | 5.09 ± 2.44 | 64.55 ± 47.91 | time to sleep (Kunming mice [3]; [9]): 3.31 ± 1.14 min |
| COc1ccc(O)cc1-c1cc(=O)c2c(O)cc(OC)c(OC)c2o1 [Example 12, 5,5′-dihydroxyl-7,8,2′-trimethoxyl-flavone] | 5 | 50** % | 8 | 80*** % | 8 | 80*** % | 255.9 ± 39.8 /10 min | 284.2 ± 41.7 /10 min | 303.1 ± 69.1 /10 min | 179.5 ± 51.4 /10 min | 168.5 ± 54.3 /10 min | 317.9 ± 55.3 /10 min | 153.7 ± 48.4 /10 min | 135.9 ± 48.7 /10 min | 302.1 ± 89.0 /10 min | 22.71 ± 26.17 | 5.43 ± 2.05 | 28.68 ± 27.56 | 5.01 ± 2.00 | 38.55 ± 23.27 | time to sleep (Kunming mice [3]; [9]): 4.25 ± 1.16 min |
| COc1ccc(C2CC(=O)c3c(cc(OC)c(OC)c3OC)O2)cc1 (stereo not drawn) [Example 65, 5,6,7,4′-tetra methoxyl-flavanone] | 4 | 40* % | 6 | 60** % | 7 | 70** % | 280.5 ± 47.4 /10 min | 279.4 ± 43.5 /10 min | 291.2 ± 83.6 /10 min | 174.3 ± 49.2 /10 min | 185.5 ± 56.6 /10 min | 289.0 ± 89.4 /10 min | 127.5 ± 36.5 /10 min | 132.6 ± 44.6 /10 min | 280.7 ± 92.3 /10 min | 31.48 ± 22.67 | 5.65 ± 1.83 | 39.63 ± 20.19 | 3.93 ± 1.39 | 57.62 ± 24.57 | time to sleep (Kunming mice [3]; [9]): 3.92 ± 1.40 min |
| COc1ccc(C2CC(=O)c3c(OC)cc(OC)c(OC)c3O2)cc1OC (stereo not drawn) [Example 44, 5,7,8,3′,4′-penta methoxyl-flavanone] | 6 | 60** % | 7 | 70** % | 9 | 90*** % | 220.8 ± 54.6 /10 min | 228.7 ± 43.3 /10 min | 311.6 ± 60.1 /10 min | 143.4 ± 41.3 /10 min | 133.5 ± 38.3 /10 min | 315.1 ± 85.5 /10 min | 103.4 ± 43.5 /10 min | 101.7 ± 45.1 /10 min | 303.8 ± 81.2 /10 min | 58.25 ± 15.16 | 4.43 ± 1.55 | 76.74 ± 25.45 | 3.46 ± 1.23 | 89.39 ± 23.44 | time to sleep (Kunming mice [3]; [9]): 3.05 ± 1.57 min |
